These results are taken from patent US20170303540A1, “NOVEL TRIAZOLE DERIVATIVES” (BAYER CROPSCIENCE AKTIENGESELLSCHAFT, priority 2014, published 2017).

The chromatographic logP is lipophilicity estimated from chromatographic retention. A higher chromatographic logP goes with higher lipophilicity.

The first data set can be described thus: Log P by HPLC on reversed phase columns (EEC directive 79/831 Annex V.A8). The data set is classed as physicochemical. To be noted: method [a]: HPLC/LC-MS at pH 2.7, 0.1% formic acid in water / acetonitrile gradient. The method, then:
Measurement of Log P values for Table 2 was performed according to EEC directive 79/831 Annex V.A8 by HPLC (High Performance Liquid Chromatography) on reversed phase columns with the following methods: ^[a]Measurement of LC-MS was done at pH 2.7 with 0.1% formic acid in water and with acetonitrile (contains 0.1% formic acid) as eluent with a linear gradient from 10% acetonitrile to 95% acetonitrile. […] Lambda-max-values were determined using UV-spectra from 200 nm to 400 nm and the peak values of the chromatographic signals.
Turning to `CC(C)(CCl)C(O)(Cc1ccnnc1Cl)Cn1cncn1` (stereo not drawn) [Example I-771], the LogP is 1.70^[a].
`OC(Cc1ccc(Cl)cc1Cl)(Cc1ccnnc1Cl)Cn1cncn1` (stereo not drawn) [Example I-444]: the LogP is 2.34^[a].
The same measure, in the same setting: the same measure for `CCC1(C(O)(Cc2cc(Cl)nnc2Cl)Cn2cncn2)CC1` (stereo not drawn) [Example I-441]: 2.18^[a].
Same read-out and setting: in the case of `CC(CF)(CF)C(O)(Cc1ccnnc1Cl)Cn1cncn1` (stereo not drawn) [Example I-530] it was 1.28^[a]; in that of `CC(C)(CF)C(O)(Cc1ccnnc1Cl)Cn1cncn1` (stereo not drawn) [Example I-593], 1.31^[a]; in that of `C=CC(C)(C)C(O)(Cc1ccnnc1Cl)Cn1cncn1` (stereo not drawn) [Example I-592], 1.60^[a].
On the same count and under the same terms, the same measure for `OC(Cc1ccc(Cl)cc1Cl)(Cc1cc(Cl)nnc1Cl)Cn1cncn1` (stereo not drawn) [Example I-480]: 2.96^[a]; for `OC(Cc1ccnnc1Cl)(Cn1cncn1)C1CC1` (stereo not drawn) [Example I-799]: 0.84^[a]; for `OC(Cc1cc(Cl)nnc1Cl)(Cn1cncn1)C1CC1` (stereo not drawn) [Example I-710]: 1.49^[a].
Turning to `CCC1(C(O)(Cc2ccnnc2Cl)Cn2cncn2)CC1` (stereo not drawn) [Example I-745], the LogP is 1.59^[a].
Same read-out and setting: in the case of `CC(C)(Cc1ccc(Cl)cc1)C(O)(Cc1ccnnc1Cl)Cn1cncn1` (stereo not drawn) [Example I-368] it was 2.75^[a].

The same data set, now with this note: reversed phase HPLC columns; method [a]: HPLC/LC-MS at pH 2.7, 0.1% formic acid in water / acetonitrile gradient.
The molecule `CC(C)(C)C(O)(Cc1ccnnc1Cl)Cn1cncn1` (stereo not drawn) [Example I-713, 1-(3-chloropyridazin-4-yl)-3,3-dimethyl-2-(1H-1,2,4-triazol-1-ylmethyl)butan-2-ol] yielded a chromatographic logP of 1.48.
